Test results reported in patent publication US9402398B2, “Herbicidal compounds” (SYNGENTA PARTICIPATIONS AG, priority 2012, dated 2016).

System: Amaranthus retoflexus (AMARE)
Test: Herbicidal glasshouse test, pre-emergence
Type: in vivo
Conditions: pre-emergence (sprayed after cultivation for one day), 1000 g/h, evaluated after 13 days
Procedure: (§1) Seeds of a variety of test species are sown in standard soil in pots (Alopecurus myosuroides (ALOMY), Setaria faberi (SETFA), Echinochloa crus-galli (ECHCG), Solanum nigrum (SOLNI), Amaranthus retoflexus (AMARE), Ipomoea hederacea (IPOHE)). After cultivation for one day (pre-emergence) or after 8 days cultivation (post-emergence) under controlled conditions in a glasshouse (at 24/16° C., day/night; 14 hours light; 65% humidity), the plants are sprayed with an aqueous spray solution derived from the formulation of the technical active ingredient in acetone/water (50:50) solution containing 0.5% Tween 20 (polyoxyethelyene sorbitan monolaurate, CAS RN 9005-64-5). Compounds are applied at 1000 g/h. The test plants are then grown in a glasshouse under controlled conditions in a glasshouse (at 24/16° C., day/night; 14 hours light; 65% humidity) and watered twice daily. After 13 days for pre and post-emergence, the test is evaluated for the percentage damage caused to the plant. The biological activities are shown in the following table on a five point scale (5=80-100%; 4=60-79%; 3=40-59%; 2=20-39%; 1=0-19%).

| Compound | percentage damage caused to the plant, five point scale, PRE Application AMARE |
| --- | --- |
| Cc1cc(C(=O)Nc2nnnn2C)c(=O)n(-c2ccccc2)n1 [Compound 1.001] | 5 (5=80-100%) |
| Cc1cc(C(=O)Nc2nnnn2C)c(=O)n(-c2ccccc2C)n1 [Compound 1.003] | 5 (5=80-100%) |
| COc1ccccc1-n1nc(C)cc(C(=O)Nc2nnnn2C)c1=O [Compound 1.004] | 5 (5=80-100%) |
| Cc1cc(C(=O)Nc2nnnn2C)c(=O)n(-c2cc(Cl)cc(Cl)c2)n1 [Compound 1.005] | 5 (5=80-100%) |

System: Alopecurus myosuroides (ALOMY)
Test: Herbicidal glasshouse test, pre-emergence
Type: in vivo
Conditions: pre-emergence (sprayed after cultivation for one day), 1000 g/h, evaluated after 13 days
Procedure: as §1

| Compound | percentage damage caused to the plant, five point scale, PRE Application ALOMY |
| --- | --- |
| Cc1cc(C(=O)Nc2nnnn2C)c(=O)n(-c2ccccc2)n1 [Compound 1.001] | 5 (5=80-100%) |
| Cc1cc(C(=O)Nc2nnnn2C)c(=O)n(-c2ccccc2C)n1 [Compound 1.003] | 2 (2=20-39%) |
| COc1ccccc1-n1nc(C)cc(C(=O)Nc2nnnn2C)c1=O [Compound 1.004] | 5 (5=80-100%) |
| Cc1cc(C(=O)Nc2nnnn2C)c(=O)n(-c2cc(Cl)cc(Cl)c2)n1 [Compound 1.005] | 5 (5=80-100%) |

System: Solanum nigrum (SOLNI)
Test: Herbicidal glasshouse test, pre-emergence
Type: in vivo
Conditions: pre-emergence (sprayed after cultivation for one day), 1000 g/h, evaluated after 13 days
Procedure: as §1

| Compound | percentage damage caused to the plant, five point scale, PRE Application SOLNI |
| --- | --- |
| Cc1cc(C(=O)Nc2nnnn2C)c(=O)n(-c2ccccc2)n1 [Compound 1.001] | 5 (5=80-100%) |
| Cc1cc(C(=O)Nc2nnnn2C)c(=O)n(-c2ccccc2C)n1 [Compound 1.003] | 4 (4=60-79%) |
| COc1ccccc1-n1nc(C)cc(C(=O)Nc2nnnn2C)c1=O [Compound 1.004] | 5 (5=80-100%) |
| Cc1cc(C(=O)Nc2nnnn2C)c(=O)n(-c2cc(Cl)cc(Cl)c2)n1 [Compound 1.005] | 5 (5=80-100%) |

System: Ipomoea hederacea (IPOHE)
Test: Herbicidal glasshouse test, pre-emergence
Type: in vivo
Conditions: pre-emergence (sprayed after cultivation for one day), 1000 g/h, evaluated after 13 days
Procedure: as §1

| Compound | percentage damage caused to the plant, five point scale, PRE Application IPOHE |
| --- | --- |
| Cc1cc(C(=O)Nc2nnnn2C)c(=O)n(-c2ccccc2)n1 [Compound 1.001] | 3 (3=40-59%) |
| Cc1cc(C(=O)Nc2nnnn2C)c(=O)n(-c2ccccc2C)n1 [Compound 1.003] | 4 (4=60-79%) |
| COc1ccccc1-n1nc(C)cc(C(=O)Nc2nnnn2C)c1=O [Compound 1.004] | 4 (4=60-79%) |
| Cc1cc(C(=O)Nc2nnnn2C)c(=O)n(-c2cc(Cl)cc(Cl)c2)n1 [Compound 1.005] | 5 (5=80-100%) |

System: Echinochloa crus-galli (ECHCG)
Test: Herbicidal glasshouse test, pre-emergence
Type: in vivo
Conditions: pre-emergence (sprayed after cultivation for one day), 1000 g/h, evaluated after 13 days
Procedure: as §1

| Compound | percentage damage caused to the plant, five point scale, PRE Application ECHCG |
| --- | --- |
| Cc1cc(C(=O)Nc2nnnn2C)c(=O)n(-c2ccccc2)n1 [Compound 1.001] | 4 (4=60-79%) |
| Cc1cc(C(=O)Nc2nnnn2C)c(=O)n(-c2ccccc2C)n1 [Compound 1.003] | 5 (5=80-100%) |
| COc1ccccc1-n1nc(C)cc(C(=O)Nc2nnnn2C)c1=O [Compound 1.004] | 5 (5=80-100%) |
| Cc1cc(C(=O)Nc2nnnn2C)c(=O)n(-c2cc(Cl)cc(Cl)c2)n1 [Compound 1.005] | 5 (5=80-100%) |

System: Setaria faberi (SETFA)
Test: Herbicidal glasshouse test, pre-emergence
Type: in vivo
Conditions: pre-emergence (sprayed after cultivation for one day), 1000 g/h, evaluated after 13 days
Procedure: as §1

| Compound | percentage damage caused to the plant, five point scale, PRE Application SETFA |
| --- | --- |
| Cc1cc(C(=O)Nc2nnnn2C)c(=O)n(-c2ccccc2)n1 [Compound 1.001] | 3 (3=40-59%) |
| Cc1cc(C(=O)Nc2nnnn2C)c(=O)n(-c2ccccc2C)n1 [Compound 1.003] | 3 (3=40-59%) |
| COc1ccccc1-n1nc(C)cc(C(=O)Nc2nnnn2C)c1=O [Compound 1.004] | 5 (5=80-100%) |
| Cc1cc(C(=O)Nc2nnnn2C)c(=O)n(-c2cc(Cl)cc(Cl)c2)n1 [Compound 1.005] | 5 (5=80-100%) |

System: Amaranthus retoflexus (AMARE)
Test: Herbicidal glasshouse test, post-emergence
Type: in vivo
Conditions: post-emergence (sprayed after 8 days cultivation), 1000 g/h, evaluated after 13 days
Procedure: as §1

| Compound | percentage damage caused to the plant, five point scale, POST Application AMARE |
| --- | --- |
| Cc1cc(C(=O)Nc2nnnn2C)c(=O)n(-c2ccccc2)n1 [Compound 1.001] | 4 (4=60-79%) |
| Cc1cc(C(=O)Nc2nnnn2C)c(=O)n(-c2ccccc2C)n1 [Compound 1.003] | 5 (5=80-100%) |
| COc1ccccc1-n1nc(C)cc(C(=O)Nc2nnnn2C)c1=O [Compound 1.004] | 5 (5=80-100%) |
| Cc1cc(C(=O)Nc2nnnn2C)c(=O)n(-c2cc(Cl)cc(Cl)c2)n1 [Compound 1.005] | 5 (5=80-100%) |

System: Alopecurus myosuroides (ALOMY)
Test: Herbicidal glasshouse test, post-emergence
Type: in vivo
Conditions: post-emergence (sprayed after 8 days cultivation), 1000 g/h, evaluated after 13 days
Procedure: as §1

| Compound | percentage damage caused to the plant, five point scale, POST Application ALOMY |
| --- | --- |
| Cc1cc(C(=O)Nc2nnnn2C)c(=O)n(-c2ccccc2)n1 [Compound 1.001] | 5 (5=80-100%) |
| Cc1cc(C(=O)Nc2nnnn2C)c(=O)n(-c2ccccc2C)n1 [Compound 1.003] | 4 (4=60-79%) |
| COc1ccccc1-n1nc(C)cc(C(=O)Nc2nnnn2C)c1=O [Compound 1.004] | 5 (5=80-100%) |
| Cc1cc(C(=O)Nc2nnnn2C)c(=O)n(-c2cc(Cl)cc(Cl)c2)n1 [Compound 1.005] | 5 (5=80-100%) |

System: Solanum nigrum (SOLNI)
Test: Herbicidal glasshouse test, post-emergence
Type: in vivo
Conditions: post-emergence (sprayed after 8 days cultivation), 1000 g/h, evaluated after 13 days
Procedure: as §1

| Compound | percentage damage caused to the plant, five point scale, POST Application SOLNI |
| --- | --- |
| Cc1cc(C(=O)Nc2nnnn2C)c(=O)n(-c2ccccc2)n1 [Compound 1.001] | 5 (5=80-100%) |
| Cc1cc(C(=O)Nc2nnnn2C)c(=O)n(-c2ccccc2C)n1 [Compound 1.003] | 5 (5=80-100%) |
| COc1ccccc1-n1nc(C)cc(C(=O)Nc2nnnn2C)c1=O [Compound 1.004] | 5 (5=80-100%) |
| Cc1cc(C(=O)Nc2nnnn2C)c(=O)n(-c2cc(Cl)cc(Cl)c2)n1 [Compound 1.005] | 5 (5=80-100%) |

System: Ipomoea hederacea (IPOHE)
Test: Herbicidal glasshouse test, post-emergence
Type: in vivo
Conditions: post-emergence (sprayed after 8 days cultivation), 1000 g/h, evaluated after 13 days
Procedure: as §1

| Compound | percentage damage caused to the plant, five point scale, POST Application IPOHE |
| --- | --- |
| Cc1cc(C(=O)Nc2nnnn2C)c(=O)n(-c2ccccc2)n1 [Compound 1.001] | 4 (4=60-79%) |
| Cc1cc(C(=O)Nc2nnnn2C)c(=O)n(-c2ccccc2C)n1 [Compound 1.003] | 5 (5=80-100%) |
| COc1ccccc1-n1nc(C)cc(C(=O)Nc2nnnn2C)c1=O [Compound 1.004] | 5 (5=80-100%) |
| Cc1cc(C(=O)Nc2nnnn2C)c(=O)n(-c2cc(Cl)cc(Cl)c2)n1 [Compound 1.005] | 5 (5=80-100%) |

System: Echinochloa crus-galli (ECHCG)
Test: Herbicidal glasshouse test, post-emergence
Type: in vivo
Conditions: post-emergence (sprayed after 8 days cultivation), 1000 g/h, evaluated after 13 days
Procedure: as §1

| Compound | percentage damage caused to the plant, five point scale, POST Application ECHCG |
| --- | --- |
| Cc1cc(C(=O)Nc2nnnn2C)c(=O)n(-c2ccccc2)n1 [Compound 1.001] | 5 (5=80-100%) |
| Cc1cc(C(=O)Nc2nnnn2C)c(=O)n(-c2ccccc2C)n1 [Compound 1.003] | 5 (5=80-100%) |
| COc1ccccc1-n1nc(C)cc(C(=O)Nc2nnnn2C)c1=O [Compound 1.004] | 5 (5=80-100%) |
| Cc1cc(C(=O)Nc2nnnn2C)c(=O)n(-c2cc(Cl)cc(Cl)c2)n1 [Compound 1.005] | 5 (5=80-100%) |

System: Setaria faberi (SETFA)
Test: Herbicidal glasshouse test, post-emergence
Type: in vivo
Conditions: post-emergence (sprayed after 8 days cultivation), 1000 g/h, evaluated after 13 days
Procedure: as §1

| Compound | percentage damage caused to the plant, five point scale, POST Application SETFA |
| --- | --- |
| Cc1cc(C(=O)Nc2nnnn2C)c(=O)n(-c2ccccc2)n1 [Compound 1.001] | 3 (3=40-59%) |
| Cc1cc(C(=O)Nc2nnnn2C)c(=O)n(-c2ccccc2C)n1 [Compound 1.003] | 3 (3=40-59%) |
| COc1ccccc1-n1nc(C)cc(C(=O)Nc2nnnn2C)c1=O [Compound 1.004] | 5 (5=80-100%) |
| Cc1cc(C(=O)Nc2nnnn2C)c(=O)n(-c2cc(Cl)cc(Cl)c2)n1 [Compound 1.005] | 5 (5=80-100%) |
